Data: paper PMC11861906, “Structural basis for lipid-mediated activation of G protein-coupled receptor GPR55” (Nature Communications, 2025)

Experiments:
[1] = molecular target: wt GPR55 (Gα13 mutant L374I) (Homo sapiens, UniProt Q9Y2T6); test: BRET² G protein dissociation assay, wt GPR55 with Gα13-L374I; format: cell-based; settings: for BRET2 response, Mean (plotted, Fig. S4): GPR55-wt-G13-L374I
Procedure: (§1) Next, we used a mutagenesis approach to further explore the Gα13 selectivity of GPR55. The striking difference in the sequence between the two G protein subtypes guided the design of four Gα13 mutants that are in close contact with GPR55 by replacing the residues with the respective Gα12 amino acid (L374^-4I, Q373^-5D, H368^-10Q, R331D). The mutants were tested individually for their ability to be activated by GPR55 using the same G protein dissociation assay. […] The single Gα13-mutants affected the potency of LPI and ML184 only to a minor extend compared to wt Gα13 (Supplementary Table S3).
(§2) G protein dissociation assays were performed according to the original protocols of the TRUPATH BRET² assay[47],[87] but with subtle modifications as previously described[61],[88],[89]. All reagents and cells were obtained from Thermo Fisher Scientific unless indicated otherwise. The coding sequences for the G protein biosensors[47] (Gα12-Rluc8, Gα13-Rluc8, wt Gβ3, and Gγ9-GFP), the wt GPR55, the construct used for cryo-EM (with GFP bearing a G67A mutation to disrupt fluorescence properties[48] for BRET² assays), GPR55 binding pocket mutants (G152^4.56F, G152^4.56W, N171^ECL2Q, N171^ECL2A, T176^5.33A, R253^6.62A), and the wt TBXA2R were codon-optimized for Homo sapiens, gene-synthesized, and sub-cloned into pcDNA^TM3.1(+) between NheI and HindIII restriction sites by GeneArt (Thermo Fisher Scientific). […] Freshly grown cells were washed with Dulbecco’s Balanced Salt Solution (DPBS, cat. #14200075) and detached using trypsin-ethylenediaminetetraacetic acid (trypsin-EDTA) (cat. #25300-062). Then, the cells were reconstituted to 500,000 cells per mL with fresh medium, and 1,000,000 cells were seeded into each well of a 6-well plate. After 3 h incubation at 37 °C and 5% CO2, adherent cells were transfected with 600 ng DNA (1:1:1:1 ratio of plasmid DNA for GPR55, wt Gβ3, Gγ9-GFP, and Gα12-Rluc8 or Gα13-Rluc8). Plasmid DNA was mixed with 1.5 µL Lipofectamine^TM 2000 (cat. #11668027) in Opti-MEM^TM medium (cat. #31985062) and incubated for 20 min. Then, the mixture was added to each well of the 6-well plate following 24 h incubation at 37 °C and 5% CO2. Transfected cells were washed with DPBS, detached using EDTA (Versene, cat. #15040066), and reconstituted into fresh medium at 500,000 cells mL^−1. From this suspension, 50,000 cells were seeded into each well of a white-bottom 96-well plate (Nunc^TM MicroWell^TM 96 wells, cat. #136101) following overnight incubation at 37 °C and 5% CO2. Then, the adherent cells were washed with assay medium [Hank’s balanced salt solution (HBSS, cat. #14065056) plus 20 mM HEPES pH 7.4 (cat. #15630056)] and finally reconstituted into 50 µL of the same medium. […] Methoxy e-Coelenterazine was used as luciferase substrate (Prolume Purple, NanoLight Technology, cat. #369), reconstituted at 1 mM in methanol and diluted to 37.5 µM with assay buffer (7.5 µM final assay concentration). The assay was started by the addition of 20 µL luciferase substrate to each well of the assay plate using a Multidrop^TM Combi reagent dispenser (Thermo Fisher Scientific), followed by 5 min incubation at room temperature. Then, 30 µL of agonist dilutions or DMSO control was added (final DMSO concentration 1.5%), followed by an additional 5 min incubation at room temperature. BRET² measurements were performed with a PHERAstar® FSX microplate reader (BMG LABTECH) using a BRET² filter (donor emission 370–450 nm, acceptor emission 500–530 nm) at the maximum fluorescence gain of 3600. BRET² ratios were calculated by dividing GFP emission signals from Rluc8 emission counts.

GPR55 = system: GPR55; design: method as in PMID 21534610; settings: β-arrestin recruitment assays; read-out: reported potency; cited from earlier work
[2] = molecular target: wt GPR55 (Gα13 mutant R331D) (Homo sapiens, UniProt Q9Y2T6); test: BRET² G protein dissociation assay, wt GPR55 with Gα13-R331D; format: cell-based; settings: for BRET2 response, Mean (plotted, Fig. S4): GPR55-wt-G13-R331D
Chain of wt GPR55 (Gα13 mutant R331D) (Q9Y2T6 whole entry, stated change not applied): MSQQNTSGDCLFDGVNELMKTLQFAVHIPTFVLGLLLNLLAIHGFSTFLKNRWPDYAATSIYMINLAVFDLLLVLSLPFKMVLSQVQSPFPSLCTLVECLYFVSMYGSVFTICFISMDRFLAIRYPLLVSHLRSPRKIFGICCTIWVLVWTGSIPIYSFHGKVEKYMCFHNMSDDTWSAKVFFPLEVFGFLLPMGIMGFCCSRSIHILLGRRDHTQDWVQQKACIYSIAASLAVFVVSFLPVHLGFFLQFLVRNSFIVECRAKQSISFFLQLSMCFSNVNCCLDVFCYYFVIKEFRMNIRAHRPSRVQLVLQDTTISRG
Chain of wt GPR55 (Gα13 mutant R331D) (Q14344 whole entry R331D partner): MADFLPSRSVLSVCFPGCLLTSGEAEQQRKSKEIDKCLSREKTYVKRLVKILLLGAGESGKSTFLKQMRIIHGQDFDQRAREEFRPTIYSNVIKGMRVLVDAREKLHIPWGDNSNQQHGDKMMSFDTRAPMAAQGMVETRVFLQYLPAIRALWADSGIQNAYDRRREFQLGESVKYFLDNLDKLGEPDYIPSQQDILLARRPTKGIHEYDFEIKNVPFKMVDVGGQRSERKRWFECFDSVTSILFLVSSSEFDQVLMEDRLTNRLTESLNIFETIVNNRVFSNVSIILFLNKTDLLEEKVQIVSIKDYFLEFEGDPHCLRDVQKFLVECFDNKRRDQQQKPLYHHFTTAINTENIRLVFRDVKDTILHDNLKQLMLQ
Chain of wt GPR55 (Gα13 mutant R331D) (P16520 whole entry partner): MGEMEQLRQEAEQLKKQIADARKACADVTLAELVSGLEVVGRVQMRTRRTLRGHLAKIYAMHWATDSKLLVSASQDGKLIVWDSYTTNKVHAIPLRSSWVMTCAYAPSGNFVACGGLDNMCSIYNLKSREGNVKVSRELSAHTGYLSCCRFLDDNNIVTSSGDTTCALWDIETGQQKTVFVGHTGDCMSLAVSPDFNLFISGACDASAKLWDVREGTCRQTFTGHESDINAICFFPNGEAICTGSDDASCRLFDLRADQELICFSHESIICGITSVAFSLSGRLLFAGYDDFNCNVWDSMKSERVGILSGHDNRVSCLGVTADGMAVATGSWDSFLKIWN
Chain of wt GPR55 (Gα13 mutant R331D) (O14610 1-66 partner limits assumed): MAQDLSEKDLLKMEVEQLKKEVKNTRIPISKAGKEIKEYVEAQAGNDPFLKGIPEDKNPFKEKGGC
Procedure: as §1, §2

[3] = molecular target: wt GPR55 (Gα13 mutant H368Q) (Homo sapiens, UniProt Q9Y2T6); test: BRET² G protein dissociation assay, wt GPR55 with Gα13-H368Q; format: cell-based; settings: for BRET2 response, Mean (plotted, Fig. S4): GPR55-wt-G13-H368Q
Chain of wt GPR55 (Gα13 mutant H368Q) (Q9Y2T6 whole entry, stated change not applied): as the sequence (Q9Y2T6 whole entry, stated change not applied) above
Chain of wt GPR55 (Gα13 mutant H368Q) (Q14344 with tags, fused parts or gaps H368Q partner): as the sequence (Q14344 whole entry R331D partner) above, with D331R, H368Q counted along it
Chain of wt GPR55 (Gα13 mutant H368Q) (P16520 whole entry partner): as the sequence (P16520 whole entry partner) above
Chain of wt GPR55 (Gα13 mutant H368Q) (O14610 1-66 partner limits assumed): as the sequence (O14610 1-66 partner limits assumed) above
Procedure: as §1, §2

[4] = molecular target: wt GPR55 (Gα13 mutant Q373D) (Homo sapiens, UniProt Q9Y2T6); test: BRET² G protein dissociation assay, wt GPR55 with Gα13-Q373D; format: cell-based; settings: for BRET2 response, Mean (plotted, Fig. S4): GPR55-wt-G13-Q373D
Chain of wt GPR55 (Gα13 mutant Q373D) (Q9Y2T6 whole entry, stated change not applied): as the sequence (Q9Y2T6 whole entry, stated change not applied) above
Chain of wt GPR55 (Gα13 mutant Q373D) (Q14344 with tags, fused parts or gaps Q373D partner): as the sequence (Q14344 whole entry R331D partner) above, with D331R, Q373D counted along it
Chain of wt GPR55 (Gα13 mutant Q373D) (P16520 whole entry partner): as the sequence (P16520 whole entry partner) above
Chain of wt GPR55 (Gα13 mutant Q373D) (O14610 1-66 partner limits assumed): as the sequence (O14610 1-66 partner limits assumed) above
Procedure: as §1, §2

Chain of wt GPR55 (Gα13 mutant L374I) (Q9Y2T6 whole entry, stated change not applied): as the sequence (Q9Y2T6 whole entry, stated change not applied) above
Chain of wt GPR55 (Gα13 mutant L374I) (Q14344 with tags, fused parts or gaps L374I partner): as the sequence (Q14344 whole entry R331D partner) above, with D331R, L374I counted along it
Chain of wt GPR55 (Gα13 mutant L374I) (P16520 whole entry partner): as the sequence (P16520 whole entry partner) above
Chain of wt GPR55 (Gα13 mutant L374I) (O14610 1-66 partner limits assumed): as the sequence (O14610 1-66 partner limits assumed) above

SMILES: Cc1cccc(N2CCN(C(=O)c3cc(S(=O)(=O)N(C)C)ccc3N3CCCC3)CC2)c1C [ML184, 3-[[4-(2,3-dimethylphenyl)-1-piperazinyl]carbonyl]-N,N-dimethyl-4-(1-pyrrolidinyl)benzenesulfonamide]
- BRET2 response, Mean (plotted, Fig. S4) ([1]; concentration 300 pM): -0.00585
- BRET2 response, Mean (plotted, Fig. S4) ([1]; concentration 1e-9 M): -0.001933
- BRET2 response, Mean (plotted, Fig. S4) ([1]; concentration 3e-9 M): -0.00955
- BRET2 response, Mean (plotted, Fig. S4) ([1]; concentration 1e-8 M): -0.02387
- BRET2 response, Mean (plotted, Fig. S4) ([1]; concentration 3e-8 M): -0.04258
- BRET2 response, Mean (plotted, Fig. S4) ([1]; concentration 1e-7 M): -0.06613
- BRET2 response, Mean (plotted, Fig. S4) ([1]; concentration 3e-7 M): -0.07745
- BRET2 response, Mean (plotted, Fig. S4) ([1]; concentration 1e-6 M): -0.0833
- BRET2 response, Mean (plotted, Fig. S4) ([1]; concentration 3e-6 M): -0.08843
- BRET2 response, Mean (plotted, Fig. S4) ([1]; concentration 1e-5 M): -0.09448
- BRET2 response, Mean (plotted, Fig. S4) ([1]; concentration 3e-5 M): -0.09637
- EC50 ([1]; wt GPR55, Gα13-L374I): 36.3 nM
- Emax at 30 µM ([1]; wt GPR55, Gα13-L374I, 30 µM ligand, same normalization, read-out: Efficacy ± SEM (%)): 84 ± 1%
- EC50 (GPR55): 260 nM
- BRET2 response, Mean (plotted, Fig. S4) ([2]; concentration 300 pM): -0.00035
- BRET2 response, Mean (plotted, Fig. S4) ([2]; concentration 1e-9 M): -0.0002667
- BRET2 response, Mean (plotted, Fig. S4) ([2]; concentration 3e-9 M): -0.009133
- BRET2 response, Mean (plotted, Fig. S4) ([2]; concentration 1e-8 M): -0.02147
- BRET2 response, Mean (plotted, Fig. S4) ([2]; concentration 3e-8 M): -0.04232
- BRET2 response, Mean (plotted, Fig. S4) ([2]; concentration 1e-7 M): -0.06272
- BRET2 response, Mean (plotted, Fig. S4) ([2]; concentration 3e-7 M): -0.07305
- BRET2 response, Mean (plotted, Fig. S4) ([2]; concentration 1e-6 M): -0.07957
- BRET2 response, Mean (plotted, Fig. S4) ([2]; concentration 3e-6 M): -0.0831
- BRET2 response, Mean (plotted, Fig. S4) ([2]; concentration 1e-5 M): -0.08698
- BRET2 response, Mean (plotted, Fig. S4) ([2]; concentration 3e-5 M): -0.08977
- EC50 ([2]; wt GPR55, Gα13-R331D): 33.9 nM
- Emax at 30 µM ([2]; wt GPR55, Gα13-R331D, 30 µM ligand, same normalization, read-out: Efficacy ± SEM (%)): 89 ± 3%
- BRET2 response, Mean (plotted, Fig. S4) ([3]; concentration 300 pM): -0.005683
- BRET2 response, Mean (plotted, Fig. S4) ([3]; concentration 1e-9 M): -0.005417
- BRET2 response, Mean (plotted, Fig. S4) ([3]; concentration 3e-9 M): -0.01235
- BRET2 response, Mean (plotted, Fig. S4) ([3]; concentration 1e-8 M): -0.02205
- BRET2 response, Mean (plotted, Fig. S4) ([3]; concentration 3e-8 M): -0.02877
- BRET2 response, Mean (plotted, Fig. S4) ([3]; concentration 1e-7 M): -0.03593
- BRET2 response, Mean (plotted, Fig. S4) ([3]; concentration 3e-7 M): -0.04192
- BRET2 response, Mean (plotted, Fig. S4) ([3]; concentration 1e-6 M): -0.04487
- BRET2 response, Mean (plotted, Fig. S4) ([3]; concentration 3e-6 M): -0.0483
- BRET2 response, Mean (plotted, Fig. S4) ([3]; concentration 1e-5 M): -0.05252
- BRET2 response, Mean (plotted, Fig. S4) ([3]; concentration 3e-5 M): -0.05477
- EC50 ([3]; wt GPR55, Gα13-H368Q): 29.5 nM
- Emax at 30 µM ([3]; wt GPR55, Gα13-H368Q, 30 µM ligand, same normalization, read-out: Efficacy ± SEM (%)): 101 ± 4%
- BRET2 response, Mean (plotted, Fig. S4) ([4]; concentration 300 pM): -0.0016
- BRET2 response, Mean (plotted, Fig. S4) ([4]; concentration 1e-9 M): -0.008467
- BRET2 response, Mean (plotted, Fig. S4) ([4]; concentration 3e-9 M): -0.01797
- BRET2 response, Mean (plotted, Fig. S4) ([4]; concentration 1e-8 M): -0.03595
- BRET2 response, Mean (plotted, Fig. S4) ([4]; concentration 3e-8 M): -0.05377
- BRET2 response, Mean (plotted, Fig. S4) ([4]; concentration 1e-7 M): -0.06678
- BRET2 response, Mean (plotted, Fig. S4) ([4]; concentration 3e-7 M): -0.07328
- BRET2 response, Mean (plotted, Fig. S4) ([4]; concentration 1e-6 M): -0.07808
- BRET2 response, Mean (plotted, Fig. S4) ([4]; concentration 3e-6 M): -0.08238
- BRET2 response, Mean (plotted, Fig. S4) ([4]; concentration 1e-5 M): -0.08622
- BRET2 response, Mean (plotted, Fig. S4) ([4]; concentration 3e-5 M): -0.08798
- EC50 ([4]; wt GPR55, Gα13-Q373D): 17 nM
- Emax at 30 µM ([4]; wt GPR55, Gα13-Q373D, 30 µM ligand, same normalization, read-out: Efficacy ± SEM (%)): 94 ± 7%
